We go through six compounds from EP1738741A2, “Use of benzylidene-1,3-thiazolidine-2,4-diones for favouring and/or inducing and/or stimulating the pigmentation of keratinic materials and/or for limiting their depigmentation and/or their bleaching” (L'ORÉAL, priority 2005, dated 2007).

In general, inhibition refers to the change of the read-out against control, counted positive when it falls.

Assay [1] deals with activité tyrosinase de mélanocytes humains normaux. Briefly: Tyrosinase activity of cultured normal human melanocytes after 72 h treatment (L-Dopa substrate, absorbance 450 nm). Type of assay: cell-based. To be noted: Melanocyte, read-out: Stimulation de l'activité tyrosinase. As for the experimental part:
Des mélanocytes épidermiques humains normaux sont cultivés (9ème passage) dans le milieu "mélanocytes growth medium M2" additionné Des compléments Promocell C24300. De pénicilline 50 UI/ml et de streptomycine 50 µg/ml (Invitrogen) dans des conditions classiques de température (37°C) sous 5% de CO2.
Le composé 5 est solubilisé dans de l'éthanol absolu (PGE2) ou dans du DMSO (inhibiteurs de 15-PGDH). Le titre final des solutions préparées est de 10 mM. Les concentrations finales testées varient de 0.1 à 10 µM (PGE2) et 1 à 10 µM (inhibiteurs de 15-PGDH).
Les essais réalisés consistent à mesurer l'effet d'inhibiteur de 15-PGDH seul ou associé à PGE2* sur l'activité globale de la tyrosinase. * PGE2 est un modulateur de pigmentation désactivé par l'enzyme 15-PGDH.
Les mélanocytes sont cultivés en plaques 96 puits jusqu'à confluence (conditions de culture décrites en a), puis le surnageant de chacun des puits est éliminé et remplacé par du milieu contenant les composés à évaluer.
Soit donc (en triplicate) l' inhibiteur de 15-PGDH seul à 1 µM et 10 µM ou pour chacune de ces premières conditions en présence de 0.1 µM, 1 µM ou 10 µM de PGE2.
Dans ces différentes conditions les cultures sont maintenues 72h00, les surnageants sont ensuite éliminés, les tapis cellulaires sont lavés avec un tampon phosphate (pH=7.2). Les cellules sont lysées avec un tampon phosphate pH=7.2 contenant 1% de triton X100.
L'activité tyrosinase de chacun des lysats est ensuite estimée contre une gamme tyrosinase de champignon (Sigma T7755).
La méthodologie mise en oeuvre utilise la L-Dopa comme substrat de réaction (45 min à 37°C), la formation de mélanine est appréciée par mesure de l'absorbance à 450 nm.
Dans ce test, deux références sont également évaluée: l'acide kojique (un inhibiteur de tyrosinase introduite à 0.1% dans le milieu de culture) et l'isobutyle méthyle xanthine (IBMX) un inhibiteur de phosphodiesterase qui limitant le catabolisme de l'AMPc contribue à l'augmentation de l'activité tyrosinase globale telle qu'appréciée dans ce test.

The target in another assay is T1, 15-PGDH de type 1 (Homo sapiens, UniProt P15428).
T1 construct: made in house
T1 sequence (P15428 1-266): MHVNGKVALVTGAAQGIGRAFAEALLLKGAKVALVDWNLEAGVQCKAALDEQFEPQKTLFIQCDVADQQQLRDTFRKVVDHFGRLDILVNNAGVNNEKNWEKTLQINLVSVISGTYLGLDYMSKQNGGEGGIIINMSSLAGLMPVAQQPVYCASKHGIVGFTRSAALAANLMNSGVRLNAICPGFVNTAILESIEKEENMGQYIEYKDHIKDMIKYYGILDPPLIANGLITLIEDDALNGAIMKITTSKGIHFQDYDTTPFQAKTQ
Kind of assay: Test on 15-PGDH type 1: spectrophotometric enzyme inhibition at 340 nm (NAD, PGE2 substrate). Type of assay: biochemical. As for the experimental part: L'enzyme 15-PGDH est obtenue comme décrit dans la demande FR 02/05067 déposée au nom de L'Oréal, en suspension dans un milieu adapté à une concentration de 0,3 mg/mL puis bloquée à - 80°C. Pour les besoins du test, cette suspension est décongelée et stockée dans de la glace.
Par ailleurs on prépare un tampon Tris 100 mM, pH = 7,4, contenant 0,1 mM de dithiothréitol (D5545, Sigma-Aldrich, L'isle D'Abeau Chesne, BP 701, 38297, Saint Quentin Fallavier), 1,5 mM de β-NAD (N6522, Sigma-Aldrich, L'isle D'Abeau Chesne, BP 701, 38297, Saint Quentin Fallavier), 50 µM de Prostaglandine E2 (P4172, Sigma-Aldrich, L'isle D'Abeau Chesne, BP 701, 38297, Saint Quentin Fallavier).
Dans la cuve d'un spectrophotomètre (Perkin-Elmer, Lambda 2) thermostaté à 37°C, dont la longueur d'onde de mesure est réglée à 340 nm, sont introduits 0,965 ml de ce tampon (préalablement porté à 37°C). 0,035 mL de suspension enzymatique à 37°C sont introduits dans la cuve concomitamment à l'enregistrement ( correspondant à une augmentation de la densité optique à 340 nm). La vitesse maximale de réaction est relevée.

Read-outs that look alike come from different tables or passages of the source.

As for `CC(C)(C)c1ccc(Oc2ccccc2/C=C2\SC(=O)NC2=O)cc1` [Composé 4], the activation at 1 µM in assay [1] came out at 16%. For the compound `CCCCC[C@H](O)/C=C/[C@H]1[C@H](O)CC(=O)[C@@H]1C/C=C\CCCC(=O)O` [PGE2, Prostaglandine E2], in assay [1] (PGE2 alone at 0,1 µM), the activation at 0.1 µM amounted to 3%. Further, the activation at 1 µM in assay [1] (PGE2 alone at 1 uM) was 9%. Moreover, in assay [1] (PGE2 alone at 10 uM), the activation at 10 µM was determined as 15%. As to `O=C1NC(=O)/C(=C/c2ccccc2Oc2ccc(F)cc2)S1` [compound 6], on 15-PGDH de type 1, the inhibition at 100 µM was 48%. On the same count and under the same terms, as for `CCN1C(=O)S/C(=C\c2ccccc2Oc2ccc(C(C)(C)C)cc2)C1=O` [compound 13], the figure is 23%; as for `CC(C)(C)CC(C)(C)c1ccc(Oc2ccccc2/C=C2/SC(=O)NC2=O)cc1` [compound 15], 27%. As to `CC(C)(C)c1ccc(Oc2ccccc2/C=C2\SC(=O)NC2=O)c(C(C)(C)C)c1` [compound 17], the inhibition at 100 µM against 15-PGDH de type 1 is 30%.
